≈ marks a conversion by molar mass, not a printed value. Where two headings read alike, the source gives them in different places.
Key:
[1] = Example 1: safety and tolerability of Compound I in healthy adult subjects; assay type: in vivo, human
Procedure: (§1) 56 healthy subjects were enrolled into one of 7 cohorts of 8 subjects each in the single ascending dose phase (250 mg, 500 mg, 750 mg, 1000 mg, 1250 mg, 1500 mg and 2000 mg). Thirty-two additional subjects were then enrolled into one of 4 cohorts in the multiple-dose phase (250 mg, 1000 mg, 1500 mg, and 2000 mg, given q8 h for 7 days). […] All infusions were administered over 3 hours. Plasma and urine samples were obtained after single or multiple doses and assayed for Compound I content using a validated HPLC/MS method.

[2] = Example 1: pharmacokinetics of Compound I, single (SD) and multiple (MD, q8h 7 days) ascending doses, 3-hour IV infusion, healthy adult subjects; assay type: in vivo, human; settings: for CL renal / AUC(0-t) / Cmax / Tmax / half-life / AUC(0-inf) / dose excreted: human, intravenous; for CL renal: plasma and urine; for AUC(0-t) / Cmax / Tmax / half-life / AUC(0-inf): plasma; for dose excreted: urine
Procedure: as §1

P. aeruginosa strains = experiment: MIC by broth microdilution (CLSI), P. aeruginosa strains; assay type: cell-based; settings: Pseudomonas aeruginosa
clinical = settings: human, in vivo
[3] = cited from earlier work

O=C(O)C[C@@H]1CC[C@H](NC(=O)Cc2cccs2)B(O)O1 [Compound I]
serious adverse events (SAEs) ([1]; 250-2000 mg): no serious adverse events | severity of AEs ([1]; 250-2000 mg): all AEs were mild or moderate | safety and tolerability ([1]; all doses tested): safe and well tolerated at all doses tested | CLNon-R ([2]; 250 mg multiple dose): 2.49 L/h | CLNon-R ([2]; 250 mg single dose): 2.85 L/h | CLNon-R ([2]; 500 mg single dose): 2.55 L/h | CLNon-R ([2]; 750 mg single dose): 1.72 L/h | CLNon-R ([2]; 1000 mg multiple dose): 2.31 L/h | CLNon-R ([2]; 1000 mg single dose): 0.97 L/h | CLNon-R ([2]; 1250 mg single dose): 1.33 L/h | CLNon-R ([2]; 1500 mg multiple dose): 1.68 L/h | CLNon-R ([2]; 1500 mg single dose): 1.42 L/h | CLNon-R ([2]; 2000 mg multiple dose): 1.15 L/h | CLNon-R ([2]; 2000 mg single dose): -1.07 L/h | exposure (Cmax and AUC) versus dose ([2]; following single and multiple doses): increased in a dose-proportional manner | CL renal ([2]; 250 mg, 250 mg multiple dose): 212 mL/min | CL renal ([2]; 250 mg, 250 mg single dose): 212 mL/min | CL renal ([2]; 500 mg, 500 mg single dose): 197 mL/min | CL renal ([2]; 750 mg, 750 mg single dose): 217 mL/min | CL renal ([2]; 1000 mg, 1000 mg multiple dose): 195 mL/min | CL renal ([2]; 1000 mg, 1000 mg single dose): 202 mL/min | CL renal ([2]; 1250 mg, 1250 mg single dose): 192 mL/min | CL renal ([2]; 1500 mg, 1500 mg multiple dose): 187 mL/min | CL renal ([2]; 1500 mg, 1500 mg single dose): 197 mL/min | CL renal ([2]; 2000 mg, 2000 mg multiple dose): 213 mL/min | CL renal ([2]; 2000 mg, 2000 mg single dose): 252 mL/min | AUC(0-t) ([2]; 250 mg, 250 mg multiple dose): 16300 ng·h/mL | Cmax ([2]; 250 mg, 250 mg multiple dose): 4810 ng/mL | Tmax ([2]; 250 mg, 250 mg multiple dose): 2.25 h | half-life ([2]; 250 mg, 250 mg multiple dose, read-out: T1/2 (converted)): 1.17 h | AUC(0-t) ([2]; 250 mg, 250 mg single dose): 16200 ng·h/mL | Cmax ([2]; 250 mg, 250 mg single dose): 5030 ng/mL | Tmax ([2]; 250 mg, 250 mg single dose): 3.02 h | half-life ([2]; 250 mg, 250 mg single dose, read-out: T1/2 (converted)): 1.17 h | AUC(0-t) ([2]; 500 mg, 500 mg single dose): 34500 ng·h/mL | Cmax ([2]; 500 mg, 500 mg single dose): 9970 ng/mL | Tmax ([2]; 500 mg, 500 mg single dose): 3 h | half-life ([2]; 500 mg, 500 mg single dose, read-out: T1/2 (converted)): 1.35 h | AUC(0-t) ([2]; 750 mg, 750 mg single dose): 50600 ng·h/mL | Cmax ([2]; 750 mg, 750 mg single dose): 15300 ng/mL | Tmax ([2]; 750 mg, 750 mg single dose): 3 h | half-life ([2]; 750 mg, 750 mg single dose, read-out: T1/2 (converted)): 1.24 h | AUC(0-t) ([2]; 1000 mg, 1000 mg multiple dose): 74600 ng·h/mL | Cmax ([2]; 1000 mg, 1000 mg multiple dose): 21300 ng/mL | Tmax ([2]; 1000 mg, 1000 mg multiple dose): 3 h | half-life ([2]; 1000 mg, 1000 mg multiple dose, read-out: T1/2 (converted)): 1.43 h | AUC(0-t) ([2]; 1000 mg, 1000 mg single dose): 76700 ng·h/mL | Cmax ([2]; 1000 mg, 1000 mg single dose): 21800 ng/mL | Tmax ([2]; 1000 mg, 1000 mg single dose): 3.01 h | half-life ([2]; 1000 mg, 1000 mg single dose, read-out: T1/2 (converted)): 1.41 h | AUC(0-t) ([2]; 1250 mg, 1250 mg single dose): 97200 ng·h/mL | Cmax ([2]; 1250 mg, 1250 mg single dose): 27800 ng/mL | Tmax ([2]; 1250 mg, 1250 mg single dose): 3 h | half-life ([2]; 1250 mg, 1250 mg single dose, read-out: T1/2 (converted)): 1.32 h | AUC(0-t) ([2]; 1500 mg, 1500 mg multiple dose): 118000 ng·h/mL | Cmax ([2]; 1500 mg, 1500 mg multiple dose): 33400 ng/mL | Tmax ([2]; 1500 mg, 1500 mg multiple dose): 3 h | half-life ([2]; 1500 mg, 1500 mg multiple dose, read-out: T1/2 (converted)): 1.65 h | AUC(0-t) ([2]; 1500 mg, 1500 mg single dose): 110000 ng·h/mL | Cmax ([2]; 1500 mg, 1500 mg single dose): 32900 ng/mL | Tmax ([2]; 1500 mg, 1500 mg single dose): 3.01 h | half-life ([2]; 1500 mg, 1500 mg single dose, read-out: T1/2 (converted)): 1.4 h | AUC(0-t) ([2]; 2000 mg, 2000 mg multiple dose): 145000 ng·h/mL | Cmax ([2]; 2000 mg, 2000 mg multiple dose): 40900 ng/mL | Tmax ([2]; 2000 mg, 2000 mg multiple dose): 2.25 h | half-life ([2]; 2000 mg, 2000 mg multiple dose, read-out: T1/2 (converted)): 1.66 h | AUC(0-t) ([2]; 2000 mg, 2000 mg single dose): 140000 ng·h/mL | Cmax ([2]; 2000 mg, 2000 mg single dose): 41600 ng/mL | Tmax ([2]; 2000 mg, 2000 mg single dose): 3.02 h | half-life ([2]; 2000 mg, 2000 mg single dose, read-out: T1/2 (converted)): 1.51 h | half-life ([2]; observed, single and multiple doses, read-out: terminal half-life): < 2 h | AUC(0-inf) ([2]; 250 mg single dose): 16600 ng·h/mL | AUC(0-inf) ([2]; 500 mg single dose): 35600 ng·h/mL | AUC(0-inf) ([2]; 750 mg single dose): 51800 ng·h/mL | AUC(0-inf) ([2]; 1000 mg single dose): 79300 ng·h/mL | AUC(0-inf) ([2]; 1250 mg single dose): 100000 ng·h/mL | AUC(0-inf) ([2]; 1500 mg single dose): 114000 ng·h/mL | AUC(0-inf) ([2]; 2000 mg single dose): 144000 ng·h/mL | dose excreted ([2]; 250 mg, 250 mg multiple dose, read-out: Urinary Recovery): 79.9% | dose excreted ([2]; 250 mg, 250 mg single dose, read-out: Urinary Recovery): 81.3% | dose excreted ([2]; 500 mg, 500 mg single dose, read-out: Urinary Recovery): 80.3% | dose excreted ([2]; 750 mg, 750 mg single dose, read-out: Urinary Recovery): 86.4% | dose excreted ([2]; 1000 mg, 1000 mg multiple dose, read-out: Urinary Recovery): 82.8% | dose excreted ([2]; 1000 mg, 1000 mg single dose, read-out: Urinary Recovery): 89.9% | dose excreted ([2]; 1250 mg, 1250 mg single dose, read-out: Urinary Recovery): 86.9% | dose excreted ([2]; 1500 mg, 1500 mg multiple dose, read-out: Urinary Recovery): 86.8% | dose excreted ([2]; 1500 mg, 1500 mg single dose, read-out: Urinary Recovery): 86.6% | dose excreted ([2]; 2000 mg, 2000 mg multiple dose, read-out: Urinary Recovery): 91.6% | dose excreted ([2]; 2000 mg, 2000 mg single dose, read-out: Urinary Recovery): 105% | dose excreted ([2]; over 48 hours across all dose groups, read-out: Urinary recovery): ≥ 80% | accumulation with multiple doses ([2]; q8h for 7 days): no evidence of accumulation

C[C@@H](O)[C@H]1C(=O)N2C(C(=O)O)=C(S[C@@H]3CN[C@H](C(=O)N(C)C)C3)[C@H](C)[C@H]12 [meropenem, Meropenem]
MIC (P. aeruginosa strains; P. aeruginosa PAM3210, read-out: MIC): 2 µg/mL (≈ 5.22 µM) | MIC (P. aeruginosa strains; P. aeruginosa PAM3353, read-out: MIC): 8 µg/mL (≈ 20.9 µM) | MIC (P. aeruginosa strains; P. aeruginosa PAM3377, read-out: MIC): 4 to 8 µg/mL (≈ 10.4 to 20.9 µM) | MIC (P. aeruginosa strains; read-out: Meropenem (w/ 8 mg/L Compound I) MIC, P. aeruginosa PAM3210, w/ 8 mg/L Compound I): 2 µg/mL (≈ 5.22 µM) | MIC (P. aeruginosa strains; read-out: Meropenem (w/ 8 mg/L Compound I) MIC, P. aeruginosa PAM3353, w/ 8 mg/L Compound I): 8 µg/mL (≈ 20.9 µM) | MIC (P. aeruginosa strains; read-out: Meropenem (w/ 8 mg/L Compound I) MIC, P. aeruginosa PAM3377, w/ 8 mg/L Compound I): 4 to 8 µg/mL (≈ 10.4 to 20.9 µM) | MIC (P. aeruginosa strains; read-out: Meropenem MIC, P. aeruginosa PAM3210): 2 µg/mL (≈ 5.22 µM) | MIC (P. aeruginosa strains; read-out: Meropenem MIC, P. aeruginosa PAM3353): 8 µg/mL (≈ 20.9 µM) | MIC (P. aeruginosa strains; read-out: Meropenem MIC, P. aeruginosa PAM3377): 4 to 8 µg/mL (≈ 10.4 to 20.9 µM) | AUC (clinical; Meropenem exposure (AUC)): 211000 ng·h/mL | clearance (clinical; weight adjusted clearance (Cl)): 2.33 mL/min/kg | mean meropenem ELF concentration ([3]; 500 mg dose, 1 hour): 5.3 µg/mL | mean meropenem ELF concentration ([3]; 500 mg dose, 2 hours): 2.7 µg/mL | mean meropenem ELF concentration ([3]; 500 mg dose, 3 hours): 1.9 µg/mL | mean meropenem ELF concentration ([3]; 500 mg dose, 5 hours): 0.7 µg/mL | mean meropenem ELF concentration ([3]; 500 mg dose, 8 hours): 0.2 µg/mL | intrapulmonary penetration based on AUC0-8 of ELF and total plasma ([3]; 500 mg dose): approximately 43% | mean meropenem ELF concentration ([3]; 1 gram dose, 1 hour): 7.7 µg/mL | mean meropenem ELF concentration ([3]; 1 gram dose, 2 hours): 4.0 µg/mL | mean meropenem ELF concentration ([3]; 1 gram dose, 3 hours): 1.7 µg/mL | mean meropenem ELF concentration ([3]; 1 gram dose, 5 hours): 0.8 µg/mL | mean meropenem ELF concentration ([3]; 1 gram dose, 8 hours): 0.03 µg/mL | intrapulmonary penetration based on AUC0-8 of ELF and total plasma ([3]; 1 gram dose): ~28% | mean meropenem ELF concentration ([3]; 2 gram dose, 1-hour sampling time): 2.9 µg/mL | mean meropenem ELF concentration ([3]; 2 gram dose, 3-hour sampling time): 2.8 µg/mL

— patent publication US20190105337A1, “METHODS OF TREATING BACTERIAL INFECTIONS” (priority 2015, published 2019)
